Measurements as given in patent US20220323487A1, “METERED DOSE FOR DEMODEX AND DISORDERS RELATED THERETO” (Azura Ophthalmics Ltd., priority 2019, published 2022).

Columns and labels:
[1] = tested on: Demodex folliculorum mites; test: In vitro assessment of anti-demodectic properties: viability of Demodex mites on epilated eyelashes; details: SeS2 4%
[2] = Protocol: The composition is prepared by the combination of selenium disulfide (SeS2) in combination with Petrolatum base (and in the absence of surface acting agents). Compositions comprising various concentrations of selenium disulfide are prepared, such as 0.1 wt. %, 0.5 wt. %, 1 wt. %, 1.5 wt. %, 2 wt. %, and 2.5 wt. %.
Various compositions prepared as described above are administered to the eye or eyelid (e.g., margin thereof) of albino rabbits. Various compositions are administered to distinct cohorts using various treatment protocols, such as based on frequency of administration (e.g., once daily, twice daily, every other day, and once weekly) and volume of administration (e.g., <25 μL, […] per administration). Compositions lacking selenium disulfide are administered to a separate cohort to establish a control.
Albino rabbits are evaluated, and an accurate volume of the composition is ejected from a device (e.g., micropipette) and is delivered to the lower eyelid of the rabbits. In one example, the volume is ˜25 μL (equivalent to 20 mg in weight). The rabbits are examined daily.
2.5% SeS2 at a dosing volume of 25 μL is administered to the animals.
Therefore, a reduced dose of 5 μL (equivalent to 4 mg) is placed on the lid of the rabbits.

[3] = rabbit, in vivo; cited from earlier work
[4] = rabbit, in vivo
Excerpt: On a subsequent study to Example 6, concentrations ranging from 0.5 wt. % to 2.5 wt. % were used on New-Zealand rabbits, once daily to twice weekly for 28 days.

[5] = cited from earlier work
[6] = in vivo; cited from earlier work
Remark: listed apart in the source
[7] = 25 μL (20 mg) of 2.5% SeS2 with petrolatum, lower eyelid of right eye

S=[Se]=S [SeS2, selenium disulfide]
death of the mites [1]: caused death of the mites
clinical or microscopic findings ([2]; 0.5%, 1.0% or 2.5%, twice weekly or once daily, dose volume 5 μL, summary, species not stated): no clinical or microscopic findings
keratitis, including red and swollen eyelids, animals affected ([2]; rabbit, in vivo): all animals
ocular effects at reduced dose ([2]; rabbit, in vivo): no evidence for any of the effects
time to onset of ocular effects after application [3]: ≤ 2 h
ophthalmic observations versus previous study [4]: safer
tolerability of ointment on the lids ([5]; 0.5 percent ointment, all patients complained of burning of the conjunctiva (Rychener)): too strong
epithelial keratitis ([5]; human, in vivo): 6 cases
keratitis, conjunctivitis with erythematous and swollen lids ([5]; human, in vivo): Two
irritancy to rabbit dermis [6]: did not appear to be irritant
finding on clinical examination [7]: keratitis is observed with multiple punctate over the center exposed part of the cornea
time to reported pain [7]: About 4 hours
time to resolution of keratitis (treated with lubricants and local NSAID): ≤ 48 h
